Laboratory results: the supplement of paper PMC10307832

Experiments:
Assay in all cases: relative viability (nuclei count vs DMSO), 5 days (fraction); higher = more cells survive
[1] = compound: CC1=CC=C(C=C1)C(=O)CN2C3=C(CCCC3)SC2=N [Pifithrin_alpha] + O=C(CCCCCCC(=O)Nc1ccccc1)NO [Vorinostat] (partner 1 µM)
Summary of the method: (§1)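 Lung cancer cell lines in 1536-well plates got either a single drug or a fixed anchor-drug dose together with five library-drug doses (not always all listed) in √10 steps, by pin tool, on the day after seeding. Nuclei were counted after 5 days, and relative viability is the treated-to-vehicle ratio of nuclei counts. Values are medians of duplicate plates.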

Bemcentinib + Phenformin = compound: Nc1nc(Nc2ccc3c(c2)CC[C@@H](N2CCCC2)CC3)nn1-c1cc2c(nn1)-c1ccccc1CCC2 [Bemcentinib] + N=C(N)NC(=N)NCCc1ccccc1 [Phenformin] (partner 250 µM)
Summary of the method: as §1

Axitinib + Linsitinib = compound: CNC(=O)c1ccccc1Sc1ccc2c(/C=C/c3ccccn3)n[nH]c2c1 [Axitinib] + C[C@]1(O)C[C@@H](c2nc(-c3ccc4ccc(-c5ccccc5)nc4c3)c3c(N)nccn32)C1 [Linsitinib] (partner 1 µM)
Summary of the method: as §1

[2] = compound: CC1=CC=C(C=C1)C(=O)CN2C3=C(CCCC3)SC2=N [Pifithrin_alpha] + Cc1cc(Nc2cc(N3CCN(C)CC3)nc(Sc3ccc(NC(=O)C4CC4)cc3)n2)n[nH]1 [Tozasertib] (partner 0.1 µM)
Summary of the method: as §1

Cell Line | relative viability ([1]; first compound 1 µM) | relative viability ([1]; first compound 3.162 µM) | relative viability ([1]; first compound 10 µM) | relative viability ([1]; first compound 31.62 µM) | relative viability ([1]; first compound 100 µM) | relative viability (Bemcentinib + Phenformin; first compound 0.04 µM) | relative viability (Bemcentinib + Phenformin; first compound 0.1265 µM) | relative viability (Bemcentinib + Phenformin; first compound 0.4 µM) | relative viability (Bemcentinib + Phenformin; first compound 1.265 µM) | relative viability (Bemcentinib + Phenformin; first compound 4 µM) | relative viability (Axitinib + Linsitinib; first compound 0.005 µM) | relative viability (Axitinib + Linsitinib; first compound 0.01581 µM) | relative viability (Axitinib + Linsitinib; first compound 0.05 µM) | relative viability (Axitinib + Linsitinib; first compound 0.1581 µM) | relative viability (Axitinib + Linsitinib; first compound 0.5 µM) | relative viability ([2]; first compound 1 µM) | relative viability ([2]; first compound 3.162 µM) | relative viability ([2]; first compound 10 µM) | relative viability ([2]; first compound 31.62 µM) | relative viability ([2]; first compound 100 µM)
NCI-H661 | 0.8 | 0.805 | 0.788 | 0.662 | 0.771 | 0.268 | 0.263 | 0.28 | 0.271 | 0.286 | 0.717 | 0.58 | 0.418 | 0.542 | 0.666 | 0.359 | 0.354 | 0.358 | 0.355 | 0.346
NCI-H727 | 0.461 | 1.18 | 1.14 | 0.777 | 1.35 | 0.626 | 0.709 | 0.493 | 0.363 | 0.671 | 0.415 | 0.246 | 0.311 | 0.246 | 0.432 | 0.505 | 0.657 | 0.52 |  | 0.579
NCI-H838 | 0.593 | 0.591 | 0.555 | 0.567 | 0.525 | 0.544 | 0.493 | 0.561 | 0.659 | 0.566 | 1.04 | 1.01 | 1.1 | 1 | 1.19 | 0.265 | 0.24 | 0.237 | 0.222 | 0.208
NCI-H1355 | 0.606 | 0.483 | 0.429 | 0.376 | 0.479 | 0.442 | 0.444 | 0.483 | 0.42 | 0.484 | 0.834 | 0.811 | 0.845 | 0.865 | 0.819 | 0.471 | 0.389 | 0.328 | 0.302 | 0.294
NCI-H1395 |  | 0.662 | 0.723 |  | 0.661 | 0.406 | 0.43 | 0.434 | 0.451 | 0.446 | 1.2 | 0.913 | 1.37 | 0.97 | 1.18 | 0.642 | 0.755 | 0.657 | 0.627 | 0.688
NCI-H1437 | 0.78 | 0.619 | 0.565 | 0.468 | 0.356 | 0.305 | 0.33 | 0.375 | 0.3 | 0.296 | 1.02 | 1.07 | 1 | 0.898 | 0.797 | 0.502 | 0.478 | 0.403 | 0.364 | 0.409
NCI-H1651 | 0.148 | 0.553 | 0.476 | 0.533 | 0.563 | 0.352 | 0.324 | 0.283 | 0.316 | 0.354 | 1.08 | 0.895 | 0.914 | 0.964 | 1.23 | 0.678 | 0.592 | 0.403 | 0.33 | 0.384
NCI-H1666 | 0.96 | 0.962 | 0.723 | 0.771 | 0.793 | 0.572 | 0.675 | 0.564 | 0.564 | 0.635 | 0.926 | 0.917 | 0.786 | 0.8 | 0.912 | 0.606 | 0.596 | 0.474 | 0.507 | 0.515
